Measured values as given in US9113629B2, “4-amino-6-(4-substituted-phenyl)-picolinates and 6-amino-2-(4-substituted-phenyl)-pyrimidine-4-carboxylates and their use as herbicides” (DOW AGROSCIENCES LLC, priority 2013, dated 2015).

System: TRZSS: wheat, including spring and winter (Triticum aestivum)
Assay: Post-emergent Test III, herbicidal activity in wheat and barley
Assay type: in vivo
Conditions: Table 9; dose for 20 percent growth reduction, probit analysis; 21 d
Protocol: (§1) Post-emergent Test III. Seeds of the desired test plant species were planted in Sun Gro MetroMix® 306 planting mixture, which typically has a pH of 6.0 to 6.8 and an organic matter content of about 30 percent, in plastic pots with a surface area of 103.2 square centimeters (cm^2). When required to ensure good germination and healthy plants, a fungicide treatment and/or other chemical or physical treatment was applied. The plants were grown for 7-36 days (d) in a greenhouse with an approximate 14 hour (h) photoperiod which was maintained at about 18° C. during the day and 17° C. during the night. Nutrients and water were added on a regular basis and supplemental lighting was provided with overhead metal halide 1000-Watt lamps as necessary. The plants were employed for testing when they reached the second or third true leaf stage.
(§2) A weighed amount, determined by the highest rate to be tested, of each test compound was placed in a 25 mL glass vial and was dissolved in 4 mL of a 97:3 v/v mixture of acetone and DMSO to obtain concentrated stock solutions. […] The concentrated stock solutions obtained were diluted with 20 mL of an aqueous mixture containing acetone, water, isopropyl alcohol, DMSO, Agri-Dex crop oil concentrate, and X-77 surfactant in a 48:39:10:1.5:1.5:0.02 v/v ratio to obtain spray solutions containing the highest application rates. Additional application rates were obtained by serial dilution of 12 mL of the high rate solution into a solution containing 2 mL of 97:3 v/v mixture of acetone and DMSO and 10 mL of an aqueous mixture containing acetone, water, isopropyl alcohol, DMSO, Agri-Dex crop oil concentrate, and X-77 surfactant in a 48:39:10:1.5:1.5:0.02 v/v ratio to obtain ½×, ¼×, ⅛× and 1/16× rates of the high rate. Compound requirements are based upon a 12 mL application volume at a rate of 187 liters per hectare (L/ha). Formulated compounds were applied to the plant material with an overhead Mandel track sprayer equipped with 8002E nozzles calibrated to deliver 187 L/ha over an application area of 0.503 square meters at a spray height of 18 inches (43 cm) above the average plant canopy height. Control plants were sprayed in the same manner with the solvent blank.
(§3) The treated plants and control plants were placed in a greenhouse as described above and watered by subirrigation to prevent wash-off of the test compounds. After 21 d, the condition of the test plants as compared with that of the untreated plants was determined visually and scored on a scale of 0 to 100 percent where 0 corresponds to no injury and 100 corresponds to complete kill.
(§4) By applying the well-accepted probit analysis as described by J. Berkson in Journal of the American Statistical Society, 48, 565 (1953) and by D. Finney in “Probit Analysis” Cambridge University Press (1952), herbicidal injury of a specific compound at various rates can be used to calculate GR20, GR50, GR80 and GR90 values, which are defined as growth reduction factors that correspond to the effective dose of herbicide required to provide plant growth reduction (GR) of 20 percent, 50 percent, 80 percent and 90 percent, respectively. Probit analysis was applied to data collected from multiple dose rates of individual compounds utilizing the procedures explained in the following examples. The analysis of those dose rates is captured in the following tables.
With `Nc1cc(-c2ccc(Br)cc2F)nc(C(=O)O)c1Cl` [Compound 74] the “GR20 TRZSS” value was 1 g ai/ha.

Same assay, conditions: Triticum aestivum, post-emergence, 504 h; Table 9; 35 g ai/ha; post-emergent; 21 d; read-out: Visual Growth Reduction (%) 21 Days After Application TRZSS
With `Nc1cc(-c2ccc(Br)cc2F)nc(C(=O)O)c1Cl` [Compound 74] the pest or weed control at 35 g/ha was 75 to 84%.

Same assay, conditions: Triticum aestivum, post-emergence, 504 h; Table 9; 70 g ai/ha; post-emergent; 21 d; read-out: Visual Growth Reduction (%) 21 Days After Application TRZSS
Work on `Nc1cc(-c2ccc(Br)cc2F)nc(C(=O)O)c1Cl` [Compound 74] yielded a pest or weed control at 70 g/ha of 75 to 84%.

System: LOLSS: ryegrass including, Italian ryegrass (Lolium multiflorum), rigid ryegrass (Lolium rigidum), annual ryegrass (Lolium multiflorum subsp. Gaudini)
Assay: as above
Assay type: in vivo
Conditions: Table 9; dose for 50 percent growth reduction, probit analysis; 21 d
Protocol: as §1, §2, §3, §4
In the case of `Nc1cc(-c2ccc(Br)cc2F)nc(C(=O)O)c1Cl` [Compound 74], the “GR50 LOLSS” value is reported as greater than 140 g ai/ha.

Same assay, conditions: Table 9; dose for 80 percent growth reduction, probit analysis; 21 d
With `Nc1cc(-c2ccc(Br)cc2F)nc(C(=O)O)c1Cl` [Compound 74] the “GR80 LOLSS” value was greater than 140 g ai/ha.

System: APESV: bentgrass (Apera spica-venti)
Assay: as above
Assay type: in vivo
Conditions: Apera spica-venti, post-emergence, 504 h; Table 9; 35 g ai/ha; post-emergent; 21 d; read-out: Visual Growth Reduction (%) 21 Days After Application APESV
Protocol: as §1, §2, §3, §4
In the case of `Nc1cc(-c2ccc(Br)cc2F)nc(C(=O)O)c1Cl` [Compound 74], the pest or weed control at 35 g/ha is reported as 85 to 94%.

Same assay, conditions: Apera spica-venti, post-emergence, 504 h; Table 9; 70 g ai/ha; post-emergent; 21 d; read-out: Visual Growth Reduction (%) 21 Days After Application APESV
`Nc1cc(-c2ccc(Br)cc2F)nc(C(=O)O)c1Cl` [Compound 74] gave a pest or weed control at 70 g/ha of 85 to 94%.

Same assay, conditions: Table 9; dose for 50 percent growth reduction, probit analysis; 21 d
With `Nc1cc(-c2ccc(Br)cc2F)nc(C(=O)O)c1Cl` [Compound 74] the “GR50 APESV” value was 10 g ai/ha.

Same assay, conditions: Table 9; dose for 80 percent growth reduction, probit analysis; 21 d
For `Nc1cc(-c2ccc(Br)cc2F)nc(C(=O)O)c1Cl` [Compound 74], the “GR80 APESV” value was 25 g ai/ha.

System: HORSS: barley, including spring and winter (Hordeum vulgare)
Assay: as above
Assay type: in vivo
Conditions: Hordeum vulgare, post-emergence, 504 h; Table 9; 35 g ai/ha; post-emergent; 21 d; read-out: Visual Growth Reduction (%) 21 Days After Application HORSS
Protocol: as §1, §2, §3, §4
Molecule `Nc1cc(-c2ccc(Br)cc2F)nc(C(=O)O)c1Cl` [Compound 74] has a pest or weed control at 35 g/ha of 85 to 94%.

Same assay, conditions: Hordeum vulgare, post-emergence, 504 h; Table 9; 70 g ai/ha; post-emergent; 21 d; read-out: Visual Growth Reduction (%) 21 Days After Application HORSS
Molecule `Nc1cc(-c2ccc(Br)cc2F)nc(C(=O)O)c1Cl` [Compound 74] has a pest or weed control at 70 g/ha of 85 to 94%.

Same assay, conditions: Table 9; dose for 20 percent growth reduction, probit analysis; 21 d
For `Nc1cc(-c2ccc(Br)cc2F)nc(C(=O)O)c1Cl` [Compound 74], the “GR20 HORSS” value was 1 g ai/ha.

System: KCHSC: kochia (Kochia scoparia)
Assay: as above
Assay type: in vivo
Conditions: Bassia scoparia, post-emergence, 504 h; Table 9; 35 g ai/ha; post-emergent; 21 d; read-out: Visual Growth Reduction (%) 21 Days After Application KCHSC
Protocol: as §1, §2, §3, §4
`Nc1cc(-c2ccc(Br)cc2F)nc(C(=O)O)c1Cl` [Compound 74] gave a pest or weed control at 35 g/ha of 85 to 94%.

Same assay, conditions: Bassia scoparia, post-emergence, 504 h; Table 9; 70 g ai/ha; post-emergent; 21 d; read-out: Visual Growth Reduction (%) 21 Days After Application KCHSC
With `Nc1cc(-c2ccc(Br)cc2F)nc(C(=O)O)c1Cl` [Compound 74] the pest or weed control at 70 g/ha was 95 to 100%.

Same assay, conditions: Table 9; dose for 50 percent growth reduction, probit analysis; 21 d
In the case of `Nc1cc(-c2ccc(Br)cc2F)nc(C(=O)O)c1Cl` [Compound 74], the “GR50 KCHSC” value is reported as 3 g ai/ha.

Same assay, conditions: Table 9; dose for 80 percent growth reduction, probit analysis; 21 d
In the case of `Nc1cc(-c2ccc(Br)cc2F)nc(C(=O)O)c1Cl` [Compound 74], the “GR80 KCHSC” value is reported as 11 g ai/ha.

System: not listed separately
Assay: as above
Assay type: in vivo, Lolium multiflorum, Lolium rigidum
Conditions: Lolium multiflorum, post-emergence, 504 h; Table 9; 35 g ai/ha; post-emergent; 21 d; read-out: Visual Growth Reduction (%) 21 Days After Application LOLSS
Protocol: as §1, §2, §3, §4
For `Nc1cc(-c2ccc(Br)cc2F)nc(C(=O)O)c1Cl` [Compound 74], the pest or weed control at 35 g/ha was 30 to 44%.

Same assay, conditions: Lolium multiflorum, post-emergence, 504 h; Table 9; 70 g ai/ha; post-emergent; 21 d; read-out: Visual Growth Reduction (%) 21 Days After Application LOLSS
With `Nc1cc(-c2ccc(Br)cc2F)nc(C(=O)O)c1Cl` [Compound 74] the pest or weed control at 70 g/ha was 45 to 59%.

System: SETVI: green foxtail (Setaria viridis)
Assay: as above
Assay type: in vivo
Conditions: Setaria viridis, post-emergence, 504 h; Table 9; 35 g ai/ha; post-emergent; 21 d; read-out: Visual Growth Reduction (%) 21 Days After Application SETVI
Protocol: as §1, §2, §3, §4
Work on `Nc1cc(-c2ccc(Br)cc2F)nc(C(=O)O)c1Cl` [Compound 74] yielded a pest or weed control at 35 g/ha of 75 to 84%.

Same assay, conditions: Setaria viridis, post-emergence, 504 h; Table 9; 70 g ai/ha; post-emergent; 21 d; read-out: Visual Growth Reduction (%) 21 Days After Application SETVI
Molecule `Nc1cc(-c2ccc(Br)cc2F)nc(C(=O)O)c1Cl` [Compound 74] has a pest or weed control at 70 g/ha of 85 to 94%.

Same assay, conditions: Table 9; dose for 50 percent growth reduction, probit analysis; 21 d
For `Nc1cc(-c2ccc(Br)cc2F)nc(C(=O)O)c1Cl` [Compound 74], the “GR50 SETVI” value was 3 g ai/ha.

Same assay, conditions: Table 9; dose for 80 percent growth reduction, probit analysis; 21 d
In the case of `Nc1cc(-c2ccc(Br)cc2F)nc(C(=O)O)c1Cl` [Compound 74], the “GR80 SETVI” value is reported as 49 g ai/ha.
